# Legend:
# Assay type in all cases: cell-based
# [1] = target: hKv1.3 (Homo sapiens, UniProt P22001); test: cell-based; conditions: Kv1.3 (IWQ) IC50 (nM, Avg)
# [2] = system: IL-2 secretion from T cells in human whole blood; conditions: read-out: WB (IL-2) IC50 (nM, Avg)
# [3] = system: IFN-g secretion from T cells in human whole blood; conditions: read-out: WB (IFNg) IC50 (nM, Avg)
# Sequence of hKv1.3 (P22001 whole entry): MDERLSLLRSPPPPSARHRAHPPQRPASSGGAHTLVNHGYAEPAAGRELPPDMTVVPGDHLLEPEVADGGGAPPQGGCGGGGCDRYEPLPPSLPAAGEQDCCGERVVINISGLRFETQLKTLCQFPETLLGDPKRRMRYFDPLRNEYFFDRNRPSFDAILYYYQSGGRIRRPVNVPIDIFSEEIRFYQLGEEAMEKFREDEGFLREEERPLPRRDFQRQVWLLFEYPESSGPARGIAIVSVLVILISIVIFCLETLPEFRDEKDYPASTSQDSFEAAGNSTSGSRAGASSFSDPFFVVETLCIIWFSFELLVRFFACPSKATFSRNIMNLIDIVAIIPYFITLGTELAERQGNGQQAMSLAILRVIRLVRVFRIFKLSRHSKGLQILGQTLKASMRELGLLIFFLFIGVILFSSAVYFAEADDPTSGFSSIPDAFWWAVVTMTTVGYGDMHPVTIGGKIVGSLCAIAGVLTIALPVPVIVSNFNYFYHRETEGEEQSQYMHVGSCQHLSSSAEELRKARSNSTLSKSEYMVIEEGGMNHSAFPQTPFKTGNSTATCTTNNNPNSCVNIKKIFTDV
Structure (SMILES),IC50 [1] [nM],IC50 [2] [nM],IC50 [3] [nM]
CC[C@H](C)[C@@H]1NC(=O)[C@@H](NC(=O)[C@H](CO)NC(=O)[C@@H](N)CCCNC(=N)N)CSSC[C@@H](C(=O)O)NC(=O)[C@H]([C@@H](C)O)NC(=O)CNC(=O)[C@@H]2CSSC[C@@H]3NC(=O)[C@H](CCC(N)=O)NC(=O)[C@H](Cc4ccccc4)NC(=O)[C@H](C)NC(=O)[C@H]([C@@H](C)O)NC(=O)[C@H](CSSC[C@H](NC(=O)[C@H](Cc4ccccc4)NC(=O)[C@H](CO)NC(=O)[C@H](CC(C)C)NC(=O)[C@H](CCCNC(=N)N)NC(=O)[C@H](Cc4ccc(O)cc4)NC(=O)[C@H](CCCCN)NC(=O)[C@H](CCSC)NC(=O)[C@H](CO)NC(=O)[C@H](Cc4c[nH]cn4)NC(=O)[C@H](CCCCN)NC3=O)C(=O)N[C@@H](CCCNC(=N)N)C(=O)N[C@@H](CCCCN)C(=O)N[C@@H]([C@@H](C)O)C(=O)N2)NC(=O)[C@H](CCCNC(=N)N)NC(=O)[C@H](CO)NC(=O)[C@H](CCCCN)NC(=O)[C@H](C)NC(=O)[C@H]([C@@H](C)CC)NC(=O)[C@H]([C@@H](C)O)NC(=O)[C@H](CC(=O)O)NC1=O [[Ala8]ShK],0.078,0.039,0.061
CC[C@H](C)[C@@H]1NC(=O)[C@@H](NC(=O)[C@H](CO)NC(=O)[C@@H](N)CCCNC(=N)N)CSSC[C@@H](C(=O)O)NC(=O)[C@H]([C@@H](C)O)NC(=O)CNC(=O)[C@@H]2CSSC[C@@H]3NC(=O)[C@H](CCC(N)=O)NC(=O)[C@H](Cc4ccccc4)NC(=O)[C@H](C)NC(=O)[C@H]([C@@H](C)O)NC(=O)[C@H](CSSC[C@H](NC(=O)[C@H](Cc4ccccc4)NC(=O)[C@H](CO)NC(=O)[C@H](CC(C)C)NC(=O)[C@H](CCCNC(=N)N)NC(=O)[C@H](Cc4ccc(O)cc4)NC(=O)[C@H](CCCCN)NC(=O)[C@H](CCSC)NC(=O)[C@H](CO)NC(=O)[C@H](Cc4c[nH]cn4)NC(=O)[C@H](CCCCN)NC3=O)C(=O)N[C@@H](CCCNC(=N)N)C(=O)N[C@@H](CCCCN)C(=O)N[C@@H]([C@@H](C)O)C(=O)N2)NC(=O)[C@H](CCCNC(=N)N)NC(=O)[C@H](CO)NC(=O)[C@H](C)NC(=O)[C@@H]2CCCN2C(=O)[C@H]([C@@H](C)CC)NC(=O)[C@H]([C@@H](C)O)NC(=O)[C@H](CC(=O)O)NC1=O [[Ala9]ShK],0.116,0.053,0.103
"CCCC[C@@H]1NC(=O)[C@H](CO)NC(=O)[C@H](Cc2c[nH]cn2)NC(=O)[C@H](CCCCN)NC(=O)[C@@H]2CSSC[C@@H]3NC(=O)[C@H]([C@@H](C)O)NC(=O)[C@H](CCCNC(=N)N)NC(=O)[C@H](CCCNC(=N)N)NC(=O)[C@H](CSSC[C@H](NC(=O)[C@H](CCCNC(=N)N)NC(=O)[C@H](CO)NC(=O)[C@H](CCCCN)NC(=O)[C@@H]4CCCN4C(=O)[C@H]([C@@H](C)CC)NC(=O)[C@H]([C@@H](C)O)NC(=O)[C@H](CC(=O)O)NC(=O)[C@H]([C@@H](C)CC)NC(=O)[C@@H](NC(=O)[C@H](CO)NC(=O)[C@@H](N)CCCNC(=N)N)CSSC[C@@H](C(N)=O)NC(=O)[C@H]([C@@H](C)O)NC(=O)CNC3=O)C(=O)N[C@@H]([C@@H](C)O)C(=O)N[C@@H](C)C(=O)N[C@@H](C)C(=O)N[C@@H](CCCCN)C(=O)N2)NC(=O)[C@H](Cc2ccccc2)NC(=O)[C@H](CO)NC(=O)[C@H](CC(C)C)NC(=O)[C@H](CCCNC(=N)N)NC(=O)[C@H](Cc2ccc(O)cc2)NC(=O)[C@H](CCCCN)NC1=O [[Ala15, Lys16, Nle21,Arg30]ShK-amide]",0.329,1.35,1.71
"CCCC[C@@H]1NC(=O)[C@H](CO)NC(=O)[C@H](Cc2c[nH]cn2)NC(=O)[C@H](CCCCN)NC(=O)[C@@H]2CSSC[C@@H]3NC(=O)[C@H]([C@@H](C)O)NC(=O)[C@H](CCCCN)NC(=O)[C@H](CCCNC(=N)N)NC(=O)[C@H](CSSC[C@H](NC(=O)[C@H](CCCNC(=N)N)NC(=O)[C@H](CO)NC(=O)[C@H](CCCCN)NC(=O)[C@@H]4CCCN4C(=O)[C@H]([C@@H](C)CC)NC(=O)[C@H]([C@@H](C)O)NC(=O)[C@H](CC(=O)O)NC(=O)[C@H]([C@@H](C)CC)NC(=O)[C@@H](NC(=O)[C@H](CO)NC(=O)[C@@H](N)CCCNC(=N)N)CSSC[C@@H](C(N)=O)NC(=O)[C@H]([C@@H](C)O)NC(=O)CNC3=O)C(=O)N[C@@H]([C@@H](C)O)C(=O)N[C@@H](C)C(=O)N[C@@H](C)C(=O)N[C@@H](CCCCN)C(=O)N2)NC(=O)[C@H](Cc2ccccc2)NC(=O)[C@H](CO)NC(=O)[C@H](CC(C)C)NC(=O)[C@H](CCCNC(=N)N)NC(=O)[C@H](Cc2ccc(O)cc2)NC(=O)[C@H](CCCCN)NC1=O [[Ala15, Lys16,Nle21]ShK-amide]",0.127,0.952,1.87
"CC[C@H](C)[C@@H]1NC(=O)[C@@H](NC(=O)[C@H](CO)NC(=O)[C@@H](N)CCCNC(=N)N)CSSC[C@@H](C(=O)O)NC(=O)[C@H]([C@@H](C)O)NC(=O)CNC(=O)[C@@H]2CSSC[C@@H]3NC(=O)[C@H](CCCCN)NC(=O)[C@H](C)NC(=O)[C@H](C)NC(=O)[C@H]([C@@H](C)O)NC(=O)[C@H](CSSC[C@H](NC(=O)[C@H](Cc4ccccc4)NC(=O)[C@H](CO)NC(=O)[C@H](CC(C)C)NC(=O)[C@H](CCCNC(=N)N)NC(=O)[C@H](Cc4ccc(O)cc4)NC(=O)[C@H](CCCCN)NC(=O)[C@H](CCSC)NC(=O)[C@H](CO)NC(=O)[C@H](Cc4c[nH]cn4)NC(=O)[C@H](CCCCN)NC3=O)C(=O)N[C@@H](CCCNC(=N)N)C(=O)N[C@@H](CCCCN)C(=O)N[C@@H]([C@@H](C)O)C(=O)N2)NC(=O)[C@H](CCCNC(=N)N)NC(=O)[C@H](CO)NC(=O)[C@H](CCCCN)NC(=O)[C@@H]2CCCN2C(=O)[C@H]([C@@H](C)CC)NC(=O)[C@H]([C@@H](C)O)NC(=O)[C@H](CC(=O)O)NC1=O [[Ala15, Lys16]ShK]",0.96,0.057,0.052
"CC[C@H](C)[C@@H]1NC(=O)[C@@H](NC(=O)[C@H](CO)NC(=O)[C@@H](N)CCCNC(=N)N)CSSC[C@@H](C(N)=O)NC(=O)[C@H]([C@@H](C)O)NC(=O)CNC(=O)[C@@H]2CSSC[C@@H]3NC(=O)[C@H](CCCCN)NC(=O)[C@H](C)NC(=O)[C@H](C)NC(=O)[C@H]([C@@H](C)O)NC(=O)[C@H](CSSC[C@H](NC(=O)[C@H](Cc4ccccc4)NC(=O)[C@H](CO)NC(=O)[C@H](CC(C)C)NC(=O)[C@H](CCCNC(=N)N)NC(=O)[C@H](Cc4ccc(O)cc4)NC(=O)[C@H](CCCCN)NC(=O)[C@H](CCSC)NC(=O)[C@H](CO)NC(=O)[C@H](Cc4c[nH]cn4)NC(=O)[C@H](CCCCN)NC3=O)C(=O)N[C@@H](CCCNC(=N)N)C(=O)N[C@@H](CCCCN)C(=O)N[C@@H]([C@@H](C)O)C(=O)N2)NC(=O)[C@H](CCCNC(=N)N)NC(=O)[C@H](CO)NC(=O)[C@H](CCCCN)NC(=O)[C@@H]2CCCN2C(=O)[C@H]([C@@H](C)CC)NC(=O)[C@H]([C@@H](C)O)NC(=O)[C@H](CC(=O)O)NC1=O [[Ala15,Lys16]ShK-amide]",0.091,0.167,0.193
CC[C@H](C)[C@@H]1NC(=O)[C@@H](NC(=O)[C@H](CO)NC(=O)[C@@H](N)CCCNC(=N)N)CSSC[C@@H](C(=O)O)NC(=O)[C@H]([C@@H](C)O)NC(=O)CNC(=O)[C@@H]2CSSC[C@@H]3NC(=O)[C@H](CCC(N)=O)NC(=O)[C@H](Cc4ccccc4)NC(=O)[C@H](C)NC(=O)[C@H]([C@@H](C)O)NC(=O)[C@H](CSSC[C@H](NC(=O)[C@H](Cc4ccccc4)NC(=O)[C@H](CO)NC(=O)[C@H](CC(C)C)NC(=O)[C@H](CCCNC(=N)N)NC(=O)[C@H](Cc4ccc(O)cc4)NC(=O)[C@H](CCCCN)NC(=O)[C@H](CCSC)NC(=O)[C@H](CO)NC(=O)[C@H](C)NC(=O)[C@H](CCCCN)NC3=O)C(=O)N[C@@H](CCCNC(=N)N)C(=O)N[C@@H](CCCCN)C(=O)N[C@@H]([C@@H](C)O)C(=O)N2)NC(=O)[C@H](CCCNC(=N)N)NC(=O)[C@H](CO)NC(=O)[C@H](CCCCN)NC(=O)[C@@H]2CCCN2C(=O)[C@H]([C@@H](C)CC)NC(=O)[C@H]([C@@H](C)O)NC(=O)[C@H](CC(=O)O)NC1=O [[Ala19]ShK],0.237,0.379,0.472
CC[C@H](C)[C@@H]1NC(=O)[C@@H](NC(=O)[C@H](CO)NC(=O)[C@@H](N)CCCNC(=N)N)CSSC[C@@H](C(=O)O)NC(=O)[C@H]([C@@H](C)O)NC(=O)CNC(=O)[C@@H]2CSSC[C@@H]3NC(=O)[C@H](CCC(N)=O)NC(=O)[C@H](Cc4ccccc4)NC(=O)[C@H](C)NC(=O)[C@H]([C@@H](C)O)NC(=O)[C@H](CSSC[C@H](NC(=O)[C@H](Cc4ccccc4)NC(=O)[C@H](CO)NC(=O)[C@H](CC(C)C)NC(=O)[C@H](C)NC(=O)[C@H](Cc4ccc(O)cc4)NC(=O)[C@H](CCCCN)NC(=O)[C@H](CCSC)NC(=O)[C@H](CO)NC(=O)[C@H](Cc4c[nH]cn4)NC(=O)[C@H](CCCCN)NC3=O)C(=O)N[C@@H](CCCNC(=N)N)C(=O)N[C@@H](CCCCN)C(=O)N[C@@H]([C@@H](C)O)C(=O)N2)NC(=O)[C@H](CCCNC(=N)N)NC(=O)[C@H](CO)NC(=O)[C@H](CCCCN)NC(=O)[C@@H]2CCCN2C(=O)[C@H]([C@@H](C)CC)NC(=O)[C@H]([C@@H](C)O)NC(=O)[C@H](CC(=O)O)NC1=O [[Ala24]ShK],0.062,0.043,0.216
CC[C@H](C)[C@@H]1NC(=O)[C@@H](NC(=O)[C@H](CO)NC(=O)[C@@H](N)CCCNC(=N)N)CSSC[C@@H](C(=O)O)NC(=O)[C@H]([C@@H](C)O)NC(=O)CNC(=O)[C@@H]2CSSC[C@@H]3NC(=O)[C@H](CCC(N)=O)NC(=O)[C@H](Cc4ccccc4)NC(=O)[C@H](C)NC(=O)[C@H]([C@@H](C)O)NC(=O)[C@H](CSSC[C@H](NC(=O)[C@H](Cc4ccccc4)NC(=O)[C@H](CO)NC(=O)[C@H](C)NC(=O)[C@H](CCCNC(=N)N)NC(=O)[C@H](Cc4ccc(O)cc4)NC(=O)[C@H](CCCCN)NC(=O)[C@H](CCSC)NC(=O)[C@H](CO)NC(=O)[C@H](Cc4c[nH]cn4)NC(=O)[C@H](CCCCN)NC3=O)C(=O)N[C@@H](CCCNC(=N)N)C(=O)N[C@@H](CCCCN)C(=O)N[C@@H]([C@@H](C)O)C(=O)N2)NC(=O)[C@H](CCCNC(=N)N)NC(=O)[C@H](CO)NC(=O)[C@H](CCCCN)NC(=O)[C@@H]2CCCN2C(=O)[C@H]([C@@H](C)CC)NC(=O)[C@H]([C@@H](C)O)NC(=O)[C@H](CC(=O)O)NC1=O [[Ala25]ShK],0.116,0.195,0.408
